In patent publication US12479840B2, “HMG-CoA reductase degradation inducing compound” (Uppthera, priority 2020, dated 2025):

Target: T1, HMG-CoA reductase (Homo sapiens, UniProt P04035)
T1 construct: endogenous in cells; host or cells: HepG2 (Korea Cell Line Bank)
T1 sequence (P04035 1-888): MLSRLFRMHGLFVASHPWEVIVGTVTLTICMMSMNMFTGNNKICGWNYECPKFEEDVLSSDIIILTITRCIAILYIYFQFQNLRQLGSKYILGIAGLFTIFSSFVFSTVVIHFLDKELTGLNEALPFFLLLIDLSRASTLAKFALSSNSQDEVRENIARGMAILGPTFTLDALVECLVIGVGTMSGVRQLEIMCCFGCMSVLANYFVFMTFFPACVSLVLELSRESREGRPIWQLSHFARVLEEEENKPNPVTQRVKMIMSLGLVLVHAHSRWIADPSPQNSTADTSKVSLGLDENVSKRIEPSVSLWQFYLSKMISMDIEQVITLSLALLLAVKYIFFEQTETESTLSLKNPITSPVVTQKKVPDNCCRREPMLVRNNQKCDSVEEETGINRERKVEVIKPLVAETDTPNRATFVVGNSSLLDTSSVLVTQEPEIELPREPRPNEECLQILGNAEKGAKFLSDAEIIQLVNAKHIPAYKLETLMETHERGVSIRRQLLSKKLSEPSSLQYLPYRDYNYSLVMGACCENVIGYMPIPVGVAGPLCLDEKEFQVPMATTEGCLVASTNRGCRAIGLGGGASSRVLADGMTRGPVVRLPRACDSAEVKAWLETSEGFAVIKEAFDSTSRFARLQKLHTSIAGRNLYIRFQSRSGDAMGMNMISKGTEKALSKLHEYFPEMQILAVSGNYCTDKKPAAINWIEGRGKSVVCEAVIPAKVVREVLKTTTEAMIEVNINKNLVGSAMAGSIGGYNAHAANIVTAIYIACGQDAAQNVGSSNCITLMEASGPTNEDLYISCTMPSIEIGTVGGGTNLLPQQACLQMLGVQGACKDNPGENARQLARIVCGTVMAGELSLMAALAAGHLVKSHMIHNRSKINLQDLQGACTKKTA
Assay: HMG-CoA reductase (HMGCR) degradation in HepG2 cells by western blotting
Type: cell-based
Conditions: treated for 18 hours, ratio of HMG-CoA reductase to GAPDH, read-out: DC50
Description: HepG2, a human liver cancer cell line, was purchased from the Korea Cell Line Bank (KCLB), Seoul, Korea. The passage in cell culture was maintained at P105 to P110.
The compounds of the present invention were completely dissolved in DMSO and used in the experiment. 2×10^5 cells were seeded for each well of a 12-well plate (SPL), and the cells were cultured in the culture medium in a total volume of 2 ml. Each of the compounds of the present invention and comparative compounds was diluted three folds from the highest concentration of 3 μM to the lowest concentration in 10 points and treated for 18 hours.
Each of the compounds the present invention and comparative compounds was diluted three folds from the highest concentration of 3 μM to the lowest concentration of […] in 10 points and was treated for 18 hours.
For SDS-PAGE and Western blotting, 1×RIPA lysis buffer (Rockland, Cat. No. MB-030-0050; Lot no. 39751), 100× Protease Inhibitor Cocktail (Quartett, Cat. No. PPI1015; Lot no. PCO50038424), Pierce™ BCA protein assay kit (ThermoScientific, Cat. No. 23225; Lot no. UC276876), albumin standard (ThermoScientific, Cat. No. 23209; Lot no. UB269561), 4-15% Mini-PROTEAN TGX stain-free gel (Bio-rad, Cat. No. 4568085; Lot no. L007041B), 10× Tris/Glycine/SDS buffer (Bio-rad, Cat. No. 1610732; Lot no. 10000044375B); 10×TBS (Bio-rad, Cat. No. 1706435; Lot no. 1000045140B), 10% Tween 20 (Cat. No. 1610781; Lot no. L004152B), Color protein standard broad range (NEB, Cat. No. P7719S; Lot no. 10040349), 4× Laemmli sample buffer (Bio-rad, Cat. No. 1610747; Lot no. L004133B), β-mercaptoethanol (Sigma-Aldrich, Cat. No. M3148; Lot no. 60-24-2), SuperBlock™ T20 (TBS) blocking buffer (ThermoScientific, Cat. No. 37536; Lot no. UC282578), 1M sodium azide solution (Sigma-Aldrich, Cat. No. 08591-1 mL-F; Lot no. BCBV4989), α-Rabbit pAb to Ms IgG (abcam, Cat. No. ab97046; Lot no. GR3252115-1), α-Goat pAb to Rb IgG (CST, Cat. No. 7074S; Lot no. 28), α-GAPDH (abcam, Cat. No. ab8245), α-HMGCR (GeneTex, Cat. No. GTX54088; Lot no. 821903509), ECL™ Prime western blotting reagents (GE Healthcare, Cat. No. RPN2232; Lot no. 17001655), Ponceau S solution (Sigma-Aldrich, Cat. No. P7170; Lot no. SLBV4112), Difco™ Skim milk (BD, Cat. No. 232100; Lot no. 8346795), and iBlot® 2 NC Regular stacks (Invitrogen, Cat. No. IB23001; Lot no. 2NR110619-02), were used.
For cell harvesting, the cells were first separated from the plate using trypsin and then washed with the medium and PBS. Specifically, the medium was suctioned off and washed with 1 mL of PBS, and PBS was suctioned off. The cells were treated with 0.5 mL TrypLE™ Express at 37° C. for 7 minutes to separate the cells, and then 0.5 mL of complete medium was added to collect 1 mL of cell culture solution. Then, 1 mL of the cell collection solution was centrifuged at 8,000 rpm for 120 seconds, and the supernatant was removed. After washing with 0.2 mL of PBS, the PBS was removed.
For cell lysis, a lysis buffer was added and cell debris was removed to obtain a cell lysate. Specifically, the cells were treated with 70 μL of 1×RIPA buffer containing a protease inhibitor and incubated for 30 minutes on ice. Then, the cells were centrifuged at 4° C. and 15,000 rpm for 10 minutes to obtain a cell lysate.
Then, a standard curve was obtained using the BCA assay, and the protein mass in the lysate was quantified by substituting the curve. The mixture was incubated at 37° C. for 30 minutes using 20 μL of standard or sample solution, and 200 μL of BCA or Bradford solution, and measured at 562 nm absorbance. Samples were prepared by adding 4× sample buffer so that the quantity of protein added to each well was 15 μg.
Sodium dodecyl sulfate polyacrylamide gel electrophoresis (SDS-PAGE) was performed by setting a running time of 100 minutes at 120 V on a 4-15% Mini-PROTEAN TGX stain-free gel (15 well). Transferring was performed on iBlot® 2 NC Mini stacks at P0 mode of the dry blotting system. […]

DC50 [nM]	SMILES
> 500	C[C@H]1C=C2C=C[C@H](C)[C@H](CC[C@@H]3C[C@@H](O)CC(=O)O3)[C@H]2[C@@H](OC(=O)C(C)(C)CCC(=O)NCCOCCOCCOCC(=O)NCC(C)(C)C)C1 [Compound 7, (1S,3R,7S,8S,8aR)-8-(2-((2R,4R)-4-hydroxy-6-oxotetrahydro-2H-pyran-2-yl)ethyl)-3,7-dimethyl-1,2,3,7,8,8a-hexahydronaphthalen-1-yl 2,2,20,20-tetramethyl-5,17-dioxo-7,10,13-trioxa-4,16-diazahenicosan-21-oate]
< 50	Cc1ncsc1-c1ccc(CNC(=O)[C@@H]2C[C@@H](O)CN2C(=O)[C@@H](NC(=O)COCCNC(=O)CCC(C)(C)C(=O)O[C@H]2C[C@@H](C)C=C3C=C[C@H](C)[C@H](CC[C@@H]4C[C@@H](O)CC(=O)O4)[C@H]32)C(C)(C)C)cc1 [Compound 8, (1S,3R,7S,8S,8aR)-8-(2-((2R,4R)-4-hydroxy-6-oxotetrahydro-2H-pyran-2-yl)ethyl)-3,7-dimethyl-1,2,3,7,8,8a-hexahydronaphthalen-1-yl 5-((2-(2-(((S)-1-((2S,4R)-4-hydroxy-2-((4-(4-methylthiazol-5-yl)benzyl)carbamoyl)pyrrolidin-1-yl)-3,3-dimethyl-1-oxobutan-2-yl)amino)-2-oxoethoxy)ethyl)amino)-2,2-dimethyl-5-oxopentanoate]
< 50	Cc1ncsc1-c1ccc(CNC(=O)[C@@H]2C[C@@H](O)CN2C(=O)[C@@H](NC(=O)COCCOCCNC(=O)CCC(C)(C)C(=O)O[C@H]2C[C@@H](C)C=C3C=C[C@H](C)[C@H](CC[C@@H]4C[C@@H](O)CC(=O)O4)[C@H]32)C(C)(C)C)cc1 [Compound 9, (S)-(1S,3R,7S,8S,8aR)-8-(2-((2R,4R)-4-hydroxy-6-oxotetrahydro-2H-pyran-2-yl)ethyl)-3,7-dimethyl-1,2,3,7,8,8a-hexahydronaphthalen-1-yl 3-((2S,4R)-4-hydroxy-2-((4-(4-methylthiazol-5-yl)benzyl)carbamoyl)pyrrolidine-1-carbonyl)-2,2,17,17-tetramethyl-5,14-dioxo-7,10-dioxa-4,13-diazaoctadecan-18-oate]
< 50	Cc1ncsc1-c1ccc(CNC(=O)[C@@H]2C[C@@H](O)CN2C(=O)[C@@H](NC(=O)COCCOCCOCCNC(=O)CCC(C)(C)C(=O)O[C@H]2C[C@@H](C)C=C3C=C[C@H](C)[C@H](CC[C@@H]4C[C@@H](O)CC(=O)O4)[C@H]32)C(C)(C)C)cc1 [Compound 10]
< 50	Cc1ncsc1-c1ccc(CNC(=O)[C@@H]2C[C@@H](O)CN2C(=O)[C@@H](NC(=O)COCCOCCOCCOCCNC(=O)CCC(C)(C)C(=O)O[C@H]2C[C@@H](C)C=C3C=C[C@H](C)[C@H](CC[C@@H]4C[C@@H](O)CC(=O)O4)[C@H]32)C(C)(C)C)cc1 [Compound 11, (S)-(1S,3R,7S,8S,8aR)-8-(2-((2R,4R)-4-hydroxy-6-oxotetrahydro-2H-pyran-2-yl)ethyl)-3,7-dimethyl-1,2,3,7,8,8a-hexahydronaphthalen-1-yl 3-((2S,4R)-4-hydroxy-2-((4-(4-methylthiazol-5-yl)benzyl)carbamoyl)pyrrolidine-1-carbonyl)-2,2,23,23-tetramethyl-5,20-dioxo-7,10,13,16-tetraoxa-4,19-diazatetracosan-24-oate]
< 50	Cc1ncsc1-c1ccc(CNC(=O)[C@@H]2C[C@@H](O)CN2C(=O)[C@@H](NC(=O)COCCOCCOCCOCCOCCNC(=O)CCC(C)(C)C(=O)O[C@H]2C[C@@H](C)C=C3C=C[C@H](C)[C@H](CC[C@@H]4C[C@@H](O)CC(=O)O4)[C@H]32)C(C)(C)C)cc1 [Compound 12, (S)-(1S,3R,7S,8S,8aR)-8-(2-((2R,4R)-4-hydroxy-6-oxotetrahydro-2H-pyran-2-yl)ethyl)-3,7-dimethyl-1,2,3,7,8,8a-hexahydronaphthalen-1-yl 3-((2S,4R)-4-hydroxy-2-((4-(4-methylthiazol-5-yl)benzyl)carbamoyl)pyrrolidine-1-carbonyl)-2,2,26,26-tetramethyl-5,23-dioxo-7,10,13,16,19-pentaoxa-4,22-diazaheptacosan-27-oate]
> 500	C[C@H]1C=C2C=C[C@H](C)[C@H](CC[C@H]3C[C@H](O)CC(=O)O3)[C@H]2[C@@H](OC(=O)NCCOCCOCCOCC(=O)NCC(C)(C)C)C1 [Compound 13, (1S,3R,7S,8S,8aR)-8-(2-((2S,4S)-4-hydroxy-6-oxotetrahydro-2H-pyran-2-yl)ethyl)-3,7-dimethyl-1,2,3,7,8,8a-hexahydronaphthalen-1-yl (14,14-dimethyl-11-oxo-3,6,9-trioxa-12-azapentadecyl) carbamate]
50 to 500	Cc1ncsc1-c1ccc(CNC(=O)[C@@H]2C[C@@H](O)CN2C(=O)[C@@H](NC(=O)COCCNC(=O)O[C@H]2C[C@@H](C)C=C3C=C[C@H](C)[C@H](CC[C@@H]4C[C@@H](O)CC(=O)O4)[C@H]32)C(C)(C)C)cc1 [Compound 14, (1S,3R,7S,8S,8aR)-8-(2-((2R,4R)-4-hydroxy-6-oxotetrahydro-2H-pyran-2-yl)ethyl)-3,7-dimethyl-1,2,3,7,8,8a-hexahydronaphthalen-1-yl (2-(2-(((S)-1-((2S,4R)-4-hydroxy-2-((4-(4-methylthiazol-5-yl)benzyl)carbamoyl)pyrrolidin-1-yl)-3,3-dimethyl-1-oxobutan-2-yl)amino)-2-oxoethoxy)ethyl)carbamate]
